Assay: Solubility of paclitaxel and docetaxel in triglycerides
Assay type: physicochemical
Conditions: dissolved at 75 °C, no recrystallization at room temperature
Procedure: A solution of docetaxel or paclitaxel in triglycerides, which will constitute the inner core of the lipid nanocapsules, is prepared by dissolving the drug into the triglyceride at 75° C. The amount of drug is adjusted in order to obtain solutions that will not recrystallize upon cooling to room temperature.

[1] = in Labrafac CC (C8 content 56.7%)
[2] = in Miglyol 810 N (C8 content 70.4%)

| Solubility (% w/w) [1] [% w/w] | Solubility (% w/w) [2] [% w/w] | Solubility (% w/w) (in Tricaprylin (C8 >99%)) | SMILES |
| --- | --- | --- | --- |
| 2 | 3.9 | 7 | CC(=O)O[C@@]12CO[C@@H]1C[C@H](O)[C@@]1(C)C(=O)[C@H](O)C3=C(C)[C@@H](OC(=O)[C@H](O)[C@@H](NC(=O)OC(C)(C)C)c4ccccc4)C[C@@](O)([C@@H](OC(=O)c4ccccc4)[C@H]21)C3(C)C [Docetaxel, docetaxel] |
| 1.6 | 2.7 | 6 | CC(=O)O[C@H]1C(=O)[C@@]2(C)[C@H]([C@H](OC(=O)c3ccccc3)[C@]3(O)C[C@H](OC(=O)[C@H](O)[C@@H](NC(=O)c4ccccc4)c4ccccc4)C(C)=C1C3(C)C)[C@]1(OC(C)=O)CO[C@@H]1C[C@@H]2O [Paclitaxel, paclitaxel] |
